From ChEMBL document CHEMBL1201862, “PubChem BioAssay data set” (2004)
Activity calls are given as the source filed them.

Experiments:
[1] = target: Sphingosine 1-phosphate receptor 4 (Homo sapiens, UniProt O95977); experiment: Late-stage fluorescence dose response cell-based assay to identify agonists of the Sphingosine 1-Phosphate Receptor 4 (S1P4): purchased compounds EC50. [Related pubchem assays (depositor defined):AID1509, AID1523, AID1563, AID1686, AID1701, AID1801]; format: functional
Coagulation factor XII = Coagulation factor XII (Homo sapiens, UniProt P00748); format: functional;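 also: activated factor XIIa alpha cleaving a fluorogenic AMC peptide substrate; inhibitor potency from loss of enzyme activity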
[2] = target: T1, Carboxy-terminal domain RNA polymerase II polypeptide A small phosphatase 1 (Homo sapiens, UniProt Q9GZU7); experiment: CTDSP1 inhibitors, concentration-response, biochemical, absorbance readout, ultra-high-throughput screen actives (AID 540297); format: functional
T1 sequence (Q9GZU7 whole entry): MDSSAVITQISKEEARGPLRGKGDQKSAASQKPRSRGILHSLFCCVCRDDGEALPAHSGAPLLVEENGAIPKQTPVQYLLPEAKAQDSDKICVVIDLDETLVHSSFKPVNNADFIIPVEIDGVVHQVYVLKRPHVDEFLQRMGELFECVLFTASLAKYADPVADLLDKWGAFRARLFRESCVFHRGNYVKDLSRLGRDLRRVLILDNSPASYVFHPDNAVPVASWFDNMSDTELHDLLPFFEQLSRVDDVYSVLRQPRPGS

[3] = target: E3 ubiquitin-protein ligase XIAP (Homo sapiens, UniProt P98170); experiment: Counter Screen using XIAP-Bir3 for Chemical Antagonists of Bir1/2 domains of IAP-family anti-apoptotic proteins. [Related pubchem assays (depositor defined):AID1018, AID1449, AID1514, AID1638, AID1749, AID1750, AID488957, AID488963]
[4] = target: T2, Tyrosine-protein phosphatase non-receptor type 22 (Homo sapiens, UniProt Q9Y2R2); experiment: SAR LYP1 Fluorescent Assay using OMFP substrate for In Vitro dose response studies - Set 2. [Related pubchem assays (depositor defined):AID1779, AID1784, AID2140, AID449726, AID488869]; format: functional
T2 sequence (Q9Y2R2 whole entry): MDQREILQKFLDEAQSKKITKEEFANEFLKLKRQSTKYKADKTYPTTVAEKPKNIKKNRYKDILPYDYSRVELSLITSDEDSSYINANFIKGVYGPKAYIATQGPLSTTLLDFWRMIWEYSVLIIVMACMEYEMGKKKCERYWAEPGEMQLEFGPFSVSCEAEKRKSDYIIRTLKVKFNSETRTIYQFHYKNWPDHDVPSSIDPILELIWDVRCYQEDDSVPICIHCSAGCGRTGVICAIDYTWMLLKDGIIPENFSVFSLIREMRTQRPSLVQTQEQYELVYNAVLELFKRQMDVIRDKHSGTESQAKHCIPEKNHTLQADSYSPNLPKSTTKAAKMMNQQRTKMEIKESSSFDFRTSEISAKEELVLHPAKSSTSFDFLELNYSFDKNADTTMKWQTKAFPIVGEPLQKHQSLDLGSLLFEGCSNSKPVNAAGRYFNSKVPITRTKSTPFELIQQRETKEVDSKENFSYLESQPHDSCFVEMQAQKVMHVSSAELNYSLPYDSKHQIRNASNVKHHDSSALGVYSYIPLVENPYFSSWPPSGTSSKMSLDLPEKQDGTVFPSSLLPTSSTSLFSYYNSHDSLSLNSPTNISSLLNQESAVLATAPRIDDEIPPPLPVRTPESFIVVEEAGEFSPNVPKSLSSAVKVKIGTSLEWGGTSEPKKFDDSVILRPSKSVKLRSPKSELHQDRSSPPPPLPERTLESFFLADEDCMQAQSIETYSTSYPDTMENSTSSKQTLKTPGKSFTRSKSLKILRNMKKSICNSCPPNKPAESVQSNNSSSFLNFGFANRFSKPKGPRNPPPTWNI

[5] = target: Tyrosine-protein phosphatase non-receptor type 12 (Homo sapiens, UniProt Q05209); experiment: SAR Selectivity Analysis of small molecule inhibitors of PEST using pCAP in a fluorescence assay. [Related pubchem assays (depositor defined):AID1779, AID1784, AID2135]; format: functional
[6] = target: T2, Tyrosine-protein phosphatase non-receptor type 22; experiment: inhibition of lymphoid tyrosine phosphatase LYP – biochemical, pCAP fluorogenic substrate, fluorescence, set 3, SAR follow-up (AID 449727); format: functional
[7] = target: T2, Tyrosine-protein phosphatase non-receptor type 22; experiment: SAR LYP1 Fluorescent Assay using OMFP substrate for In Vitro dose response studies - Set 3. [Related pubchem assays (depositor defined):AID1779, AID1784, AID2140, AID2686]; format: functional
[8] = target: T3, Tyrosine-protein phosphatase non-receptor type 7 (Homo sapiens, UniProt P35236); experiment: inhibition of hematopoietic tyrosine phosphatase HePTP – biochemical, set 2, SAR follow-up (AID 449736); format: functional
T3 sequence (P35236 whole entry): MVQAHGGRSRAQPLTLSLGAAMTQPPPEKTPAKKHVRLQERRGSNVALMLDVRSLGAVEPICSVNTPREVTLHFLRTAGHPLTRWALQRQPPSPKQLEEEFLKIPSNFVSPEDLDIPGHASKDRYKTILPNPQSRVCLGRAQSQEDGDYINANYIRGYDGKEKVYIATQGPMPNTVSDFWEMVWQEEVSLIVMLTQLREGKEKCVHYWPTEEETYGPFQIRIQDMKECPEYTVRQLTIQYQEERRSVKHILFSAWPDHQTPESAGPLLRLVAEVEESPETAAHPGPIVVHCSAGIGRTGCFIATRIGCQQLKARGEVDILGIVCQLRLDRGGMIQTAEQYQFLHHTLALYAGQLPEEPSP

[9] = target: T2, Tyrosine-protein phosphatase non-receptor type 22; experiment: SAR LYP1 Fluorescent Assay using pCAP substrate for In Vitro dose response studies - Set 2. [Related pubchem assays (depositor defined):AID1779, AID1784, AID2135, AID449727]; format: functional
[10] = target: T4, Dual specificity protein phosphatase 6 (Rattus norvegicus, UniProt Q64346); experiment: inhibition of rat DUSP6 enzyme activity – biochemical, in vitro, primary screen (AID 425)
T4 sequence (Q64346 whole entry): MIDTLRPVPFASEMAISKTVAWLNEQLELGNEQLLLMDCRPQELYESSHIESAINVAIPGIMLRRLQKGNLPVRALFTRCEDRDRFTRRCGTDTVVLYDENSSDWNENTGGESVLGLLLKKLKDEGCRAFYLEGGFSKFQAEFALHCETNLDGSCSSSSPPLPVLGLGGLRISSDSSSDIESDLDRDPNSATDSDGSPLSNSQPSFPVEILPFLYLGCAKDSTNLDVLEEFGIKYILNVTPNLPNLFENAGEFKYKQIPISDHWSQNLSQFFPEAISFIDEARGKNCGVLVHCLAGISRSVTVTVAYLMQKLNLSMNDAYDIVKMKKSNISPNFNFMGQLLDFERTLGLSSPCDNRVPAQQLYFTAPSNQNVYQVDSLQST

[11] = target: T5, Dual specificity protein phosphatase 3 (Homo sapiens, UniProt P51452); experiment: VHR1 phosphatase inhibitors, biochemical (AID 1878)
[12] = target: T5, Dual specificity protein phosphatase 3; experiment: VHR1 phosphatase inhibitors, primary screen, biochemical, absorbance, uHTS (AID 1654)
Bcl-2-related protein A1 = target: T6, Bcl-2-related protein A1 (Mus musculus, UniProt Q07440); format: functional;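 also: confirmatory dose–response counterscreen on Bfl-1, used to check hits from a UBC13 polyubiquitin inhibitor campaign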
T6 sequence (Q07440 whole entry): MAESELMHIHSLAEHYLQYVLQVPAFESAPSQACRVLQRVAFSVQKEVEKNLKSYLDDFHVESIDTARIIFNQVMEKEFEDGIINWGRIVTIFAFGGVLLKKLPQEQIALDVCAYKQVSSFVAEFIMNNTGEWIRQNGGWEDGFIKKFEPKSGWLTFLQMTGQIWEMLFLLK

[13] = target: T7, Ubiquitin-conjugating enzyme E2 N (Homo sapiens, UniProt P61088); format: functional
T7 sequence (P61088 whole entry): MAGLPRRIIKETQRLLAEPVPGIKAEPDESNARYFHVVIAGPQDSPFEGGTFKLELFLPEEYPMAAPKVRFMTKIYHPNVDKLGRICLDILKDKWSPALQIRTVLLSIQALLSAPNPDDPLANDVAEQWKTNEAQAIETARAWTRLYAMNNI

[14] = target: T7, Ubiquitin-conjugating enzyme E2 N; format: functional; remark: listed apart in the source
[15] = Trypanosoma cruzi growth suppression in host cells – NIH3T3 host cells, beta-gal luminescence, confirmation (AID 2044); format: functional, cell-based;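 also: intracellular parasites grown in NIH/3T3 mouse fibroblasts as host cells; luminescent beta-galactosidase reporter signal from transgenic T. cruzi replicating inside host cells; inhibitors lower the luminescence signal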
[16] = toxicity toward HepG2 liver cells – cell-based, plate reader, cherry-pick, antagonist series, cytotoxicity control, dose response (AID 743416); format: functional
[17] = blockade of melanocortin 4 receptor signaling – cell-based, plate reader, cherry pick, counter-screen for LGR2 antagonist project, dose response (AID 743444); format: functional;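 also: transfected HEK 293 cells stimulated with alpha-MSH peptide; potency of inhibitors of the alpha-MSH evoked signal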
[18] = target: G-protein coupled receptor 55 (Homo sapiens, UniProt Q9Y2T6); experiment: inhibition of LPI-stimulated GPR55 beta-arrestin translocation – imaging, U2OS, beta-arrestin-GFP, LPI agonist, primary screen (AID 2013); format: functional;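 also: antagonist potency measured as reduced agonist-driven arrestin aggregation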
[19] = NIH-3T3 fibroblast cytotoxicity, dose response, cytotoxicity control, cell-based, fluorescence, Alamar Blue, secondary assay (AID 2327); format: functional;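 also: NIH-3T3 mouse fibroblasts cultured with fluconazole at 8 µg/mL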
[20] = loss of viability in HepG2 cells – cell-based, CellTiter-Glo, cherry-picked, cytotoxicity control for Shn3 inhibitor project, dose response (AID 624134); format: functional
[21] = NIH3T3 cell viability loss – ATP luminescence, mouse fibroblasts, counter-screen, dose response (AID 2010); format: functional, cell-based;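 also: cells exposed to compound for about 90 hours before reading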
[22] = viability loss in HEK293 cells – cell-based, plate reader, cherry-picked samples, cytotoxicity control, dose response (AID 743446); format: functional
[23] = fluconazole-exposed Candida albicans growth modulators – fluorescence, retest, confirmation (AID 2467); format: functional, cell-based
[24] = blockers of bursicon-stimulated LGR2 cAMP reporter – cell-based, HEK293, CRE-luciferase reporter, cherry pick, set 2, dose response (AID 743343); format: functional;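 also: transfected cells were stimulated with diluted bursicon conditioned medium after compound addition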
INS1 = experiment: INS-1E survival protection against cytokine death – cell-based, luminescence, retest, dose response (AID 449756); format: functional; conditions: Rattus norvegicus;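 also: cell death triggered by IL-1 beta plus TNF-alpha plus IFN-gamma mixture; protective hits raise ATP signal compared with cytokine alone wells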
[25] = non-specific 3'UTR reporter inhibition in Clone20-Shn3RL – cell-based, Renilla luciferase, cherry-picked, counter-screen for Shn3 inhibitor project, dose response (AID 624133); format: functional
[26] = reduction of Shn3 3'UTR-driven luciferase in osteoblasts – cell-based, Clone20 osteoblasts, firefly luciferase, cherry-picked, dose response (AID 624132); format: functional;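 also: firefly luciferase luminescence from reporter carrying the Shn3 3'UTR in osteoblasts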
X-box-binding protein 1 = X-box-binding protein 1 (Homo sapiens, UniProt P17861); format: functional, Cricetulus griseus;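 also: confirmatory dose-response counter-screen serving a CHOP assay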
[27] = target: DNA damage-inducible transcript 3 protein (Mus musculus, UniProt P35639); format: functional, Cricetulus griseus
[28] = A549 cell cytotoxicity, dose response, cytotoxicity control, plate reader, cherry-pick, antagonist series (AID 743412); format: functional, cell-based
[29] = Vero E6 cell cytotoxicity, dose response, cytotoxicity control for non-replicating M. tuberculosis project, secondary assay (AID 492998); format: functional, VeroE6; conditions: Vero C1008

T5 sequence (P51452 whole entry): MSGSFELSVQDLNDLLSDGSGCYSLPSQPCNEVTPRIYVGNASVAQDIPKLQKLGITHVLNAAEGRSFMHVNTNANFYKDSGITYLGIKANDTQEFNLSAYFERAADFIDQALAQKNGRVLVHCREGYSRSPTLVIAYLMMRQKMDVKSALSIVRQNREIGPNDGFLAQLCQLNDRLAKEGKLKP
Chain of Sphingosine 1-phosphate receptor 4 (O95977 whole entry): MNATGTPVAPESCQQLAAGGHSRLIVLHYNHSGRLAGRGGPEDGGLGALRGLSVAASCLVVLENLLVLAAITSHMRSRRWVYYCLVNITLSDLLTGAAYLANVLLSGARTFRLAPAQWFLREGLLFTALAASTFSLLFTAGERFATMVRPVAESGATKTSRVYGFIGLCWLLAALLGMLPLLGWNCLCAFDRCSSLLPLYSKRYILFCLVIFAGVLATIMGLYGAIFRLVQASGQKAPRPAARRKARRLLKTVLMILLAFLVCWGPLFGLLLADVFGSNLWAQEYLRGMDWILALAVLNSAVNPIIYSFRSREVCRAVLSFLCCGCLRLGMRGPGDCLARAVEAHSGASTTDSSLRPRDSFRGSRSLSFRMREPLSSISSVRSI
Chain of Coagulation factor XII (P00748 20-372 limits assumed): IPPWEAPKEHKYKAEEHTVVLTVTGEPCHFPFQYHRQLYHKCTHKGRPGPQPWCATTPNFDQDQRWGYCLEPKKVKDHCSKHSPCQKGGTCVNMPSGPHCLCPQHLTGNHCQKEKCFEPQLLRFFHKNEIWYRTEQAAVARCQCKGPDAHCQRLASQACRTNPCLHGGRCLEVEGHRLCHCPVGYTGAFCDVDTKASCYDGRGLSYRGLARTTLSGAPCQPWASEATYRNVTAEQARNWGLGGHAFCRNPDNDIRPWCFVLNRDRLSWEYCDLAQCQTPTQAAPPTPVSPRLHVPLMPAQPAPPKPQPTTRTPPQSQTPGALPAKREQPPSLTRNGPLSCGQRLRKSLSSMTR
Chain of Coagulation factor XII (P00748 373-615 limits assumed): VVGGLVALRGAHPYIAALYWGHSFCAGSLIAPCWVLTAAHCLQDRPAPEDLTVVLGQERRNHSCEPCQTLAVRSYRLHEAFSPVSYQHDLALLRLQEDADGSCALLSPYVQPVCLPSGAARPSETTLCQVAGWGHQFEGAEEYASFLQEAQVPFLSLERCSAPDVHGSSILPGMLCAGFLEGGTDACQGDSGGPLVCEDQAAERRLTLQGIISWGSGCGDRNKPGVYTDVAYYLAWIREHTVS
Chain of X-box-binding protein 1 (P17861 whole entry): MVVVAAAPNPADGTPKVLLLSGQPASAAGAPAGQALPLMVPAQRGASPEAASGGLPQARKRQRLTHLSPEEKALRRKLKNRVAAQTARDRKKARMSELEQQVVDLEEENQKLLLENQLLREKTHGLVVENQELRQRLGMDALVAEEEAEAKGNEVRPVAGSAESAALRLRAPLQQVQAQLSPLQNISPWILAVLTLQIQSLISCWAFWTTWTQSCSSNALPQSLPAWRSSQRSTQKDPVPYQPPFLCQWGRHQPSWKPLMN
Chain of Tyrosine-protein phosphatase non-receptor type 12 (Q05209 whole entry): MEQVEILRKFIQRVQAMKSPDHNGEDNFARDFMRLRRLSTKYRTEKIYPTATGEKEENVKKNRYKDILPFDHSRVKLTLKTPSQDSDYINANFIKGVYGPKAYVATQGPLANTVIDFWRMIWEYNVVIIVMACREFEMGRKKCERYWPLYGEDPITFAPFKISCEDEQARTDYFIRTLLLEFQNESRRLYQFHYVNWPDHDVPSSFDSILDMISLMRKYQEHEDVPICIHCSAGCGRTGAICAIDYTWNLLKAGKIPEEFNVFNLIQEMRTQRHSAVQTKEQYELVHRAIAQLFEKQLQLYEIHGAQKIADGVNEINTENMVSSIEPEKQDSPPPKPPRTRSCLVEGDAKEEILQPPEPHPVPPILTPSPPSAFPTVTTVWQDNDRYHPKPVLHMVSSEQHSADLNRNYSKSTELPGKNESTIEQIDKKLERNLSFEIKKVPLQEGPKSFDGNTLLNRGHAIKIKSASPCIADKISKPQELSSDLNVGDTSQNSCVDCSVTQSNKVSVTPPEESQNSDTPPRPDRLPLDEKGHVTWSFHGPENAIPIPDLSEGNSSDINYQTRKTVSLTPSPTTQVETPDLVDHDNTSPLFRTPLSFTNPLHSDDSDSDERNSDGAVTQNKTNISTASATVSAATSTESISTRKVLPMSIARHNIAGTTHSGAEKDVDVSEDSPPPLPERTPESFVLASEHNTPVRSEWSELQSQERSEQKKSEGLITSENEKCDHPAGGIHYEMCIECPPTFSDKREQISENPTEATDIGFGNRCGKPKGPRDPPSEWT
Chain of G-protein coupled receptor 55 (Q9Y2T6 whole entry): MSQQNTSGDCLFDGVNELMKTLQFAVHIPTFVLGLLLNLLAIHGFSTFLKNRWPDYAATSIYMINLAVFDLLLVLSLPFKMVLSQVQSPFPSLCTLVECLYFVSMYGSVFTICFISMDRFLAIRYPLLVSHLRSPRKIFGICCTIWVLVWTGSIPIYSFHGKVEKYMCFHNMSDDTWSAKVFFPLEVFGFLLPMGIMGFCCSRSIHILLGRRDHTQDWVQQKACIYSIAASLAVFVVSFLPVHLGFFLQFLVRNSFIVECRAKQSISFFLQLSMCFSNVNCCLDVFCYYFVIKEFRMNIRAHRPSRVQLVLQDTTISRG
Chain of E3 ubiquitin-protein ligase XIAP (P98170 whole entry): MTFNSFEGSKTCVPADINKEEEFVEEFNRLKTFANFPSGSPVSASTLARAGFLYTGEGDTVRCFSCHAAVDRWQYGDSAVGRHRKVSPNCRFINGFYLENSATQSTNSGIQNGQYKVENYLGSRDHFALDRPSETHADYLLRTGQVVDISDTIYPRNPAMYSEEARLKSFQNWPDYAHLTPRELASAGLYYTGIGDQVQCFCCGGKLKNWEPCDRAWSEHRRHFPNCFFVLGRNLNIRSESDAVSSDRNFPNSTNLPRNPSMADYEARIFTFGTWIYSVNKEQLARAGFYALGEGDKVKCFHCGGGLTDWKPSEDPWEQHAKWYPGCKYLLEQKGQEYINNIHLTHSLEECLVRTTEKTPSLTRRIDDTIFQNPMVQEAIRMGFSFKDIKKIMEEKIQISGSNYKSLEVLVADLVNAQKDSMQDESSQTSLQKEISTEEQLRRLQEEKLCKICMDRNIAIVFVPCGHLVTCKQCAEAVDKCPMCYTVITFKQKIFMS
Chain of DNA damage-inducible transcript 3 protein (P35639 whole entry): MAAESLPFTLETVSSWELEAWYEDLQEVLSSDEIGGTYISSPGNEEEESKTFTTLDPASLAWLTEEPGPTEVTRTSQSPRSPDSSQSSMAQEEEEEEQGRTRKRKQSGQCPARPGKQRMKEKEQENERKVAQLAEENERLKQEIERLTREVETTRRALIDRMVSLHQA

Cc1ccc(OCc2cc3ccc(C)c(C)c3nc2Cl)c([N+](=O)[O-])n1
EC50 [1]: > 50 µM (inactive)

CCCCOC(=O)c1ccc(NC(=O)C(=O)NCc2ccco2)cc1
IC50 (Coagulation factor XII): > 50 µM (inactive)

Cc1coc2c(C)c3oc(=O)c(CCC(=O)N[C@@H](C)C(=O)N[C@@H](Cc4ccccc4)C(=O)O)c(C)c3cc12
IC50 [2]: 3.6 µM (active)
IC50 [3]: > 20 µM (inactive)

N#C/C(=C\c1ccc(OCc2ccc(F)cc2)cc1)C(=O)Nc1cccc(C(=O)O)c1
IC50 [4]: 5.27 µM (active)
IC50 [5]: 0.916 µM (active)
IC50 [6]: 6.93 µM (active)
IC50 [7]: 0.967 µM (active)
IC50 [2]: 4.13 µM (active)
IC50 [8]: 2.03 µM (active)
IC50 [9]: 5.52 µM (active)

Cc1snc2sc(C(=O)c3ccc(F)cc3)c(N)c12
IC50 [10]: > 158 µM (not active)
IC50 [11]: 2.03 µM (active)
IC50 [12]: < 1.23 µM (inactive)

CCCCn1c(=O)[nH]c(=O)c2c1nc(-c1ccc(C#N)cc1)n2C1CCCC1
IC50 (Bcl-2-related protein A1): > 20 µM (inactive)
IC50 [13]: 1.99 µM (active)
IC50 [14]: 18.7 µM (active)

Cc1ccc(Nc2nc(NCc3ccco3)c3ccccc3n2)cc1.Cl
EC50 [15]: < 0.1 µM (active)
EC50 (cells): 0.094 µM (active)
AC50 [16]: 7.35 µM (active)
AC50 [17]: 12.3 µM (active)
IC50 [18]: 5.21 µM (active)
EC50 [19]: > 160 µM (inconclusive)
AC50 [20]: 12.6 µM (active)
EC50 [21]: > 30 µM (not active)
AC50 [22]: 16.1 µM (active)
EC50 [23]: 3.24 µM (active)
AC50 [24]: 9.43 µM (active)
AC50 (INS1): 3.65 µM (active)
AC50 [25]: 3.31 µM (active)
AC50 [26]: 9.84 µM (active)
Absolute IC50 (XBP1) (X-box-binding protein 1): 10 µM
IC50 [14]: > 20 µM (inactive)
Absolute IC50 (CHOP) [27]: 10 µM
AC50 [28]: 10.9 µM (active)

N=C(NOC(=O)c1cccc2ccccc12)c1cccnc1
CC50 [29]: 15 µM (active)
